Assay results from ChEMBL document CHEMBL5046300, “Potent Bactericidal Antimycobacterials Targeting the Chaperone ClpC1 Based on the Depsipeptide Natural Products Ecumicin and Ohmyungsamycin A” (2022).
Values after ≈ are worked out from the molar mass of the structure shown. Active and inactive are the calls of the source. No cut-off for these calls is given here. *1 amine or outer side, *2 acyl side, *3 side chain or, on linkers, in order; H or OH if unused. Where a SMILES comes first, the peptide text is derived from it. Bridges are numbered along the chain shown (N, C = ends). [ ]: non-standard residue; d: D form. The star is where a group is joined. Phe(3R-OH) = O=C([C@@H](N[*:1])[C@H](O[*:3])c1ccccc1)[*:2]; NMeTrp(4-OMe) = CN[C@@H](Cc1c[nH]c2cccc(OC)c12)C(=O)O; NMeW = CN[C@@H](Cc1c[nH]c2ccccc12)C(=O)O; NMeaIle = CC[C@@H](C)[C@H](NC)C(=O)O; NMe2Val = CC(C)[C@@H](C(=O)*)N(C)C; NMeF = CN[C@@H](Cc1ccccc1)C(=O)O; NMeT = CN[C@H](C(=O)O)[C@@H](C)O; NMeL = CN[C@@H](CC(C)C)C(=O)O; NMeV = CN[C@H](C(=O)O)C(C)C; NMeA = CN[C@@H](C)C(=O)O

Legend:
[1] = system: Mycobacterium tuberculosis; experiment: Antimycobacterial activity against Mycobacterium tuberculosis mc2 6230 measured after 7 days; format: functional; conditions: mc2 6230, 168 h, time 7 day
[2] = system: Mycolicibacterium smegmatis; experiment: Enhancement of Mycobacterium smegmatis ClpC1 ATPase activity assessed as inhibition of ClpC1/ClpP1P2 complex-mediated beta-casein proteolysis incubated for 30 to 60 mins by in vitro degradation assay; conditions: filed as activator, time 30-60 min
Escherichia coli = experiment: Antibacterial activity against Escherichia coli K-12 MG1655 assessed as bacterial growth inhibition incubated for 18 to 20 hrs by broth microdilution method; format: functional; conditions: time 18-20 hrs
Klebsiella aerogenes = experiment: Antibacterial activity against Klebsiella aerogenes ATCC 35029 assessed as bacterial growth inhibition incubated for 18 to 20 hrs by broth microdilution method; format: functional; conditions: time 18-20 hrs
Klebsiella pneumoniae = experiment: Antibacterial activity against Klebsiella pneumoniae ATCC 700603 assessed as bacterial growth inhibition incubated for 18 to 20 hrs by broth microdilution method; format: functional; conditions: time 18-20 hrs
[3] = system: Providencia alcalifaciens; experiment: Antibacterial activity against Providencia alcalifaciens ATCC 9886 assessed as bacterial growth inhibition incubated for 18 to 20 hrs by broth microdilution method; format: functional; conditions: time 18-20 hrs
Salmonella enterica = experiment: Antibacterial activity against Salmonella enterica ATCC 13311 assessed as bacterial growth inhibition incubated for 18 to 20 hrs by broth microdilution method; format: functional; conditions: time 18-20 hrs
Shigella sonnei = experiment: Antibacterial activity against Shigella sonnei ATCC 25931 assessed as bacterial growth inhibition incubated for 18 to 20 hrs by broth microdilution method; format: functional; conditions: time 18-20 hrs
[4] = system: Yersinia pseudotuberculosis; experiment: Antibacterial activity against Yersinia pseudotuberculosis ATCC 6904 assessed as bacterial growth inhibition incubated for 18 to 20 hrs by broth microdilution method; format: functional; conditions: time 18-20 hrs
Acinetobacter baumannii = experiment: Antibacterial activity against Acinetobacter baumannii ATCC 19606 assessed as bacterial growth inhibition incubated for 18 to 20 hrs by broth microdilution method; format: functional; conditions: time 18-20 hrs
Pseudomonas aeruginosa = experiment: Antibacterial activity against Pseudomonas aeruginosa ATCC 27853 assessed as bacterial growth inhibition incubated for 18 to 20 hrs by broth microdilution method; format: functional; conditions: time 18-20 hrs
Vibrio cholerae = experiment: Antibacterial activity against Vibrio cholerae A1552 El Tor assessed as bacterial growth inhibition incubated for 18 to 20 hrs by broth microdilution method; format: functional; conditions: time 18-20 hrs
Brucella anthropi = experiment: Antibacterial activity against Ochrobactrum anthropi ATCC 49687 assessed as bacterial growth inhibition incubated for 18 to 20 hrs by broth microdilution method; format: functional; conditions: time 18-20 hrs
Bacillus subtilis = experiment: Antibacterial activity against Bacillus subtilis ATCC 6051 assessed as bacterial growth inhibition incubated for 18 to 20 hrs by broth microdilution method; format: functional; conditions: time 18-20 hrs
Listeria ivanovii = experiment: Antibacterial activity against Listeria ivanovii BAA-139 assessed as bacterial growth inhibition incubated for 18 to 20 hrs by broth microdilution method; format: functional; conditions: time 18-20 hrs
Staphylococcus aureus [5] = experiment: Antibacterial activity against methicillin-sensitive Staphylococcus aureus ATCC 29213 assessed as bacterial growth inhibition incubated for 18 to 20 hrs by broth microdilution method; format: functional; conditions: time 18-20 hrs
Staphylococcus aureus [6] = experiment: Antibacterial activity against methicillin-resistant Staphylococcus aureus BAA-44 assessed as bacterial growth inhibition incubated for 18 to 20 hrs by broth microdilution method; format: functional; conditions: time 18-20 hrs
[7] = system: Staphylococcus epidermidis; experiment: Antibacterial activity against Staphylococcus epidermidis ATCC 14990 assessed as bacterial growth inhibition incubated for 18 to 20 hrs by broth microdilution method; format: functional; conditions: time 18-20 hrs
Enterococcus faecium = experiment: Antibacterial activity against Enterococcus faecium ATCC 6569 assessed as bacterial growth inhibition incubated for 18 to 20 hrs by broth microdilution method; format: functional; conditions: time 18-20 hrs
Enterococcus faecalis = experiment: Antibacterial activity against Enterococcus faecalis ATCC 29212 assessed as bacterial growth inhibition incubated for 18 to 20 hrs by broth microdilution method; format: functional; conditions: time 18-20 hrs
Streptococcus pneumoniae = experiment: Antibacterial activity against Streptococcus pneumoniae ATCC 49619 assessed as bacterial growth inhibition incubated for 18 to 20 hrs by broth microdilution method; format: functional; conditions: time 18-20 hrs
[8] = system: Mycobacterium tuberculosis; experiment: Synergistic antimycobacterial activity against Mycobacterium tuberculosis mc2 6230 assessed as fractional inhibitory concentration incubated for 7 days in presence of rifampicin by checkerboard assay; format: functional; conditions: time 7 day
[9] = system: Mycobacterium tuberculosis; experiment: Synergistic antimycobacterial activity against Mycobacterium tuberculosis mc2 6230 assessed as fractional inhibitory concentration incubated for 7 days in presence of isoniazid by checkerboard assay; format: functional; conditions: time 7 day
[10] = system: Mycobacterium tuberculosis; experiment: Synergistic antimycobacterial activity against Mycobacterium tuberculosis mc2 6230 assessed as fractional inhibitory concentration incubated for 7 days in presence of pyrazinamide by checkerboard assay; format: functional; conditions: time 7 day
[11] = system: Mycobacterium tuberculosis; experiment: Synergistic antimycobacterial activity against Mycobacterium tuberculosis mc2 6230 assessed as fractional inhibitory concentration incubated for 7 days in presence of ethambutol by checkerboard assay; format: functional; conditions: time 7 day
[12] = system: Mycobacterium tuberculosis; experiment: Synergistic antimycobacterial activity against Mycobacterium tuberculosis mc2 6230 assessed as fractional inhibitory concentration incubated for 7 days in presence of clofazimine by checkerboard assay; format: functional; conditions: time 7 day
[13] = system: Mycobacterium tuberculosis; experiment: Synergistic antimycobacterial activity against Mycobacterium tuberculosis mc2 6230 assessed as fractional inhibitory concentration incubated for 7 days in presence of bedaquiline by checkerboard assay; format: functional; conditions: time 7 day
[14] = system: Mycobacterium tuberculosis; experiment: Antimycobacterial activity against Mycobacterium tuberculosis mc2 6230 measured after 7 days by Time kill assay; format: functional, organism-based; conditions: time 7.0 day
[15] = system: Mycolicibacterium smegmatis; experiment: Enhancement of hexameric Mycobacterium smegmatis ClpC1 ATPase activity assessed as fold increase at 100 uM incubated for 30 mins by ATP/NADH spectrophotometric analysis; conditions: filed as activator
[16] = system: Mycobacterium tuberculosis; experiment: Bactericidal activity against Mycobacterium tuberculosis mc2 6230 at 10 time MIC monitored for 28 days under hypoxic non-replicating culture condition by time kill assay; format: functional, organism-based; conditions: time 28.0 day
[17] = system: Mycobacterium tuberculosis; experiment: Antibacterial activity against Mycobacterium tuberculosis mc2 6230 assessed as reduction in viable cells at 10 times MIC measured for 42 days in solid media by time kill assay; format: functional
Mycobacterium marinum [18] = experiment: Antimycobacterial activity against mid-exponential phase Mycobacterium marinum M strain incubated for 2 days by fluorescence assay; format: functional; conditions: 48 h, time 2 day
Mycobacterium marinum [19] = experiment: Antimycobacterial activity against tdTomato fluorescent Mycobacterium marinum infected in zebrafish assessed as reduction in bacterial burden at 25 uM pre-infected with bacteria for 4 to 5 days followed by compound addition and measured after day 6 post infection by microscopic analysis relative to control; format: functional; set-up: scale not given: the % may be the effect or the level left; conditions: time 4-5 day
Mycobacterium marinum [20] = experiment: Antimycobacterial activity against Mycobacterium marinum infected in zebrafish assessed as reduction in bacterial burden at 10 uM after 6 days post infection; format: functional; set-up: scale not given: the % may be the effect or the level left; conditions: time 6 day
Mycobacterium marinum [21] = experiment: Antimycobacterial activity against Mycobacterium marinum infected in zebrafish assessed as reduction in bacterial burden at 10 uM in presence of rifampicin after 6 days post infection; format: functional; set-up: scale not given: the % may be the effect or the level left; conditions: time 6 day
[22] = system: Mycobacterium tuberculosis; experiment: Antimycobacterial activity against Mycobacterium tuberculosis H37Rv infected in human THP-1 cells assessed as log reduction in bacterial growth at 10 uM incubated for 3 to 4 weeks by intracellular killing assay; format: functional; conditions: time 3-4 weeks

Row | SMILES | MIC [1] | MIC (Escherichia coli) | MIC (Klebsiella aerogenes) | MIC (Klebsiella pneumoniae) | MIC [3] | MIC (Salmonella enterica) | MIC (Shigella sonnei) | MIC [4] | MIC (Acinetobacter baumannii) | MIC (Pseudomonas aeruginosa) | MIC (Vibrio cholerae) | MIC (Brucella anthropi) | MIC (Bacillus subtilis) | MIC (Listeria ivanovii) | MIC (Staphylococcus aureus [5]) | MIC (Staphylococcus aureus [6]) | MIC [7] | MIC (Enterococcus faecium) | MIC (Enterococcus faecalis) | MIC (Streptococcus pneumoniae) | further results
1 | CN[C@H](C(=O)N[C@H](C(=O)N[C@@H]1C(=O)N(C)[C@@H]([C@@H](C)O)C(=O)N[C@@H](C(C)C)C(=O)N(C)[C@@H](CC(C)C)C(=O)N[C@@H](C(C)C)C(=O)N(C)[C@@H](Cc2ccccc2)C(=O)N(C)[C@@H](Cc2c[nH]c3ccccc23)C(=O)N[C@@H](C(C)C)C(=O)N[C@@H](Cc2ccccc2)C(=O)N[C@@H](C(C)C)C(=O)O[C@@H]1C)C(C)C)C(C)C (H-[NMeV]VT[NMeT]V[NMeL]V[NMeF][NMeW]VFV; ester 3-C) | 0.125 µM (≈ 0.183 µg/mL) | – | – | – | – | – | – | – | – | – | – | – | – | – | – | – | – | – | – | – | inhibition [2]: Active
2 | CN[C@H](C(=O)N[C@H](C(=O)N[C@@H]1C(=O)N(C)[C@@H]([C@@H](C)O)C(=O)N[C@@H](C(C)C)C(=O)N(C)[C@@H](CC(C)C)C(=O)N[C@@H](C(C)C)C(=O)N(C)[C@@H](C)C(=O)N(C)[C@@H](Cc2c[nH]c3ccccc23)C(=O)N[C@@H](C(C)C)C(=O)N[C@@H](Cc2ccccc2)C(=O)N[C@@H](C(C)C)C(=O)O[C@@H]1C)C(C)C)C(C)C (H-[NMeV]VT[NMeT]V[NMeL]V[NMeA][NMeW]VFV; ester 3-C) | 0.5 µM (≈ 0.692 µg/mL) | > 128 µM | 128 µM (≈ 177 µg/mL) | > 128 µM | > 128 µM | > 128 µM | > 128 µM | > 128 µM | > 128 µM | > 128 µM | > 128 µM | > 128 µM | 128 µM (≈ 177 µg/mL) | > 128 µM | > 128 µM | > 128 µM | > 128 µM | > 128 µM | > 128 µM | > 128 µM | FIC [8]: 0.375; FIC [9]: 2; FIC [10]: 2; FIC [11]: 0.75; FIC [12]: 2; FIC [13]: 3; Activity [14]: Active; fold change (FC) [15]: 3; Activity [16]: Active; Activity ([17]; time 42 day): 6 log10CFU/ml; MIC50 (Mycobacterium marinum [18]): 1.44 µM (≈ 1.99 µg/mL); Activity (Mycobacterium marinum [19]): 76%; Activity (Mycobacterium marinum [20]): 50%; Activity (Mycobacterium marinum [21]): 83%; Activity [2]: Active
3 | CC[C@@H](C)[C@@H](C(=O)N[C@@H]1C(=O)N(C)[C@@H]([C@@H](C)O)C(=O)N[C@@H](C(C)C)C(=O)N(C)[C@@H](CC(C)C)C(=O)N[C@@H](C(C)C)C(=O)N(C)[C@@H](C(C)C)C(=O)N(C)[C@@H](Cc2c[nH]c3cccc(OC)c23)C(=O)N[C@@H](C(C)C)C(=O)N[C@@H]([C@H](O)c2ccccc2)C(=O)N[C@@H](C(C)C)C(=O)O[C@@H]1C)N(C)C(=O)[C@@H](NC(=O)[C@H](C(C)C)N(C)C)C(C)C (NMe2Val-V[NMeaIle]T[NMeT]V[NMeL]V[NMeV][NMeTrp(4-OMe)]V[Phe(3R-OH)]V; ester 3-C) | 1 µM (≈ 1.6 µg/mL) | – | – | – | – | – | – | – | – | – | – | – | – | – | – | – | – | – | – | – | Activity [22]: 1 log10CFU/ml
4 | CO[C@H]1/C=C/O[C@@]2(C)Oc3c(C)c(O)c4c(O)c(c(/C=N/N5CCN(C)CC5)c(O)c4c3C2=O)NC(=O)/C(C)=C\C=C\[C@H](C)[C@H](O)[C@@H](C)[C@@H](O)[C@@H](C)[C@H](OC(C)=O)[C@@H]1C [RIFAMPIN] | – | 4 µM (≈ 3.29 µg/mL) | 8 µM (≈ 6.58 µg/mL) | 16 µM (≈ 13.2 µg/mL) | 8 µM (≈ 6.58 µg/mL) | 2 µM (≈ 1.65 µg/mL) | 1.7 µM (≈ 1.4 µg/mL) | 11 µM (≈ 9.05 µg/mL) | 1 µM (≈ 0.823 µg/mL) | 53 µM (≈ 43.6 µg/mL) | 128 µM (≈ 105 µg/mL) | 4 µM (≈ 3.29 µg/mL) | 4 µM (≈ 3.29 µg/mL) | 0.19 µM (≈ 0.156 µg/mL) | 0.02 µM (≈ 0.0165 µg/mL) | 0.01 µM (≈ 0.00823 µg/mL) | 0.02 µM (≈ 0.0165 µg/mL) | 21 µM (≈ 17.3 µg/mL) | 1 µM (≈ 0.823 µg/mL) | 0.11 µM (≈ 0.0905 µg/mL) | Activity [22]: 1 log10CFU/ml; Activity (Mycobacterium marinum [20]): 27%
5 | NNC(=O)c1ccncc1 | – | – | – | – | – | – | – | – | – | – | – | – | – | – | – | – | – | – | – | – | Activity ([17]; time 42.0 day): inactive
